Several values for one entry are separate records, joined by “and”; a condition that tells them apart may be missing. Equal values may be shown once.
Experiments:
[1] = Total radioactivity in blood and plasma by accelerator mass spectrometry, phase I mass balance study; type: in vivo, human; conditions: 960 mg single oral dose
Experimental: Venous blood samples were collected via an indwelling cannula or by venepuncture. A 12 mL sample was taken into heparinized glass tube and chilled on ice immediately before IP administration and 3 mL samples were taken at 1, 4, 9, 12, 24, 48, 72, 96, 120, 144, 168, and 240 h and on Days 15, 31, 59, 89, and 119 after IP administration. The first 0.5 mL of blood withdrawn via cannula was discarded. One aliquot of heparinized whole blood (1 mL) per time point was stored at or below −20°C for total radioactivity analysis. The remaining blood was centrifuged, and the harvested plasma was stored at approximately −20°C for bioanalysis or transferred (exactly 1 mL) into polypropylene tubes pre-filled with 5 µL formic acid. One plasma sample (0.5 mL) was used for metabolite profiling while another (0.5 mL) was used for parent drug and SCYX-3109 metabolite analysis. The remaining plasma was used for total radioactivity analysis.
TNO (Leiden, the Netherlands) performed the analysis of total radioactivity and the metabolite profiling and identification. All blood, plasma, urine, and fecal homogenate samples were analyzed for total radioactivity by accelerator mass spectrometry (AMS). AMS analysis was performed on a 1 MV multi-element AMS, model 4110 Bo, high voltage engineering (software: AMS 155), using Australian National University (ANU) sucrose-8542 (C12H22O11) with a certified ^14C/^12C isotope ratio ([10]) as the system suitability test sample and [^14C]-paracetamol as an AMS quality check sample.
For each (diluted) sample, 5 µL blood, 5 µL plasma, 15 µL urine, or 30 mg fecal homogenate prepared in 1% CMC solution (1% CMC solution:feces ratio of 4:1) were transferred to tin foil cups. The samples were dried under a stream of nitrogen and subsequently placed in the elemental analyzer (EA, Vario Micro, Elementar, Germany), which acts as an autosampler and combustion device for the AMS. Single samples of blood, plasma, and urine were analyzed. Fecal homogenates were analyzed in triplicate, and the averaged value was reported. Total radioactivity in plasma and blood was expressed as ng equivalents (Eq) of acoziborole/mL. The LLOQ was 47.3 ngEq/mL in plasma (1.51 mBq/mL), 165.4 ngEq/mL in blood (5.28 mBq/mL), 33.8 ngEq/mL in urine (1.08 mBq/mL), and 87.1 ngEq/mL in feces (2.78 mBq/mL).
Blood-to-plasma ratio was calculated based on Cmax and AUC values. For total radioactivity excreted in urine, feces, and both combined, the following parameters were calculated: total amount of total radioactivity excreted over the time interval between t1 and t2 (Aet1−t2), Aet1−t2 expressed as a percentage of the radioactive dose administered (%Aet1−t2), CumAe, and Cum%Ae. For CumAe calculation, the recovery of total radioactivity during WinNonlin time intervals in which urine and feces were not collected was estimated using the area under the excretion rate-time curve from the end of the preceding collection interval to the start of the subsequent collection interval.

[2] = set-up: method as in PMID 21738803; conditions: NHPs, cited from earlier work
[3] = set-up: method as in PMID 21738803; conditions: liver sub-cellular fractions from rodents, dogs, cynomolgus monkeys, and humans; cited from earlier work
CYP2C8 = target: T1, CYP2C8 (Homo sapiens, UniProt P10632); test: Incubation with CYP450 recombinant enzymes (Bactosomes) and NADPH; type: in vitro ADME; conditions: 1 µM
T1 construct: purchased
T1 sequence (P10632 1-490): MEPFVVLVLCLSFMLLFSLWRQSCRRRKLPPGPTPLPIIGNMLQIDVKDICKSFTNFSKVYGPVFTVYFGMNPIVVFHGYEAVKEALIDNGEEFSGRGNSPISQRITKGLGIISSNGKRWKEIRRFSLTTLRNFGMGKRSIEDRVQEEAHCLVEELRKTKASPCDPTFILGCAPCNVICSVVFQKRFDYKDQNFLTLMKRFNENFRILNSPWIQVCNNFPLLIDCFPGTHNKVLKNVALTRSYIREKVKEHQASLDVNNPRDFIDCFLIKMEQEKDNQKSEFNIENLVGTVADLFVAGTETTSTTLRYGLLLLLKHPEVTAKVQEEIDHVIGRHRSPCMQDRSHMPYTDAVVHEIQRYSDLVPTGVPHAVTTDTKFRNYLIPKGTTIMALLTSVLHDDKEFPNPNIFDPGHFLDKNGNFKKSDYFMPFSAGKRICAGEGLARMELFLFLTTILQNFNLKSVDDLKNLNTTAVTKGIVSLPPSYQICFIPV

MDCK-MDR1 cell monolayer = conditions: cited from earlier work
[4] = N = 6, mean ± SD, listed as [^14C]-acoziborole

For CC1(C)OB(O)c2cc(NC(=O)c3ccc(F)cc3C(F)(F)F)ccc21 [acoziborole], the “mean whole blood to plasma total radioactivity ratios (Cmax and AUC0–240h), interpretation” value [1] was “no affinity for blood cells”, the “median tmax, total radioactivity in plasma” value ([1]; N = 6) was 48 h and the “AUC0–240h, total radioactivity, whole blood” value ([1]; N = 6, mean ± SD) was 2,250.737 ± 182.816 µg-eq*h/mL. For the same compound, the “AUC0–t, total radioactivity, plasma” value ([1]; N = 6, mean ± SD) was 5,403.286 ± 1,561.755 µg-eq*h/mL, the “AUC0–t, total radioactivity, whole blood” value ([1]; N = 6, mean ± SD) was 3,556.202 ± 3,236.208 µg-eq*h/mL and the “AUC0–∞, total radioactivity, plasma” value ([1]; N = 6, mean ± SD) was 5,785.324 ± 1,105.726 µg-eq*h/mL. For the same compound, the “AUC0–∞, total radioactivity, whole blood” value ([1]; N = 6, mean ± SD) was 5,382.336 ± 2,473.408 µg-eq*h/mL, the “tmax, total radioactivity, plasma” value ([1]; N = 6, mean ± SD) was 56.0 ± 12.4 h and the “tmax, total radioactivity, whole blood” value ([1]; N = 6, mean ± SD) was 68.1 ± 9.9 h. The “AUC0–240h, total radioactivity, plasma” value [1, 4] was 2,371.786 ± 255.572 µg-eq*h/mL, the “t1/2, total radioactivity, plasma” value [1, 4] was 278.3 h and 278 h and 278.3 ± 47.4 h and the “t1/2, total radioactivity, whole blood” value [1, 4] was 239.2 h and 239.2 ± 65.7 h. For the same compound, the “Cmax, total radioactivity, whole blood” value ([1]; healthy males, N = 6, mean ± SD) was 12.052 ± 1.129 µg-eq/mL, the “Cmax, total radioactivity, plasma” value ([1]; healthy males, N = 6, mean ± SD, listed as [^14C]-acoziborole) was 13.13 µg-eq/mL and 13.130 ± 1.776 µg-eq/mL and the “mean whole blood to plasma total radioactivity ratios (Cmax and AUC0–240h), interpretation” value ([1]; listed as [^14C]-acoziborole) was “equivalent distribution between blood cells and plasma”. The “concentration in the CSF as percentage of the plasma concentration” value ([2]; at each time point) was “approximately 5%”, the absolute bioavailability ([2]; oral) was 89% and the metabolic stability [3] was “metabolically stable”. The “metabolism by recombinant CYP2C8” value (CYP2C8) was “metabolized by” and the apparent permeability (MDCK-MDR1 cell monolayer) was 77.6 ×10⁻⁶ cm/s.
